In patent publication US8895561B2, “Compounds and methods for treating candidiasis and aspergillus infections” (Cellceutix Corporation, priority 2012, dated 2014):
Like-named read-outs stand apart in the source and are kept apart here.

Key:
[1] = tested on: C. albicans mature biofilms; assay: Metabolic activity of mature biofilms grown at an air-liquid interface; type: cell-based
[2] = tested on: C. albicans (clinical isolate GDH2346); assay: Mouse model of oral candidiasis; type: in vivo, mice
Method: To examine the activity of Compound 100 in vivo, an oral model of Candida infection was established in C57B1/6 mice. Animals were first treated for 5 days with oral tetracycline to reduce normal oral flora. An infection was initiated in the mice by inoculating a 50 μL suspension of C. albicans onto lightly scored tongues. This led to colonization of the tongues by days 2 to 4 after inoculation as measured by histological analysis and by recovery of viable colonies upon homogenization. Topical treatment of the infections on day 3 with a single 50 μL dose of a 1 mg/mL compound solution in a neutral hydrogel was sufficient to reduce the total colony counts by greater than 10-fold, equivalent to a similar treatment with an equivalent concentration of Nystatin suspension. […] 8-week old male mBD-1(−/−) mice on a C57B1/6 background were pre-treated for 5 days with 2.5 mg/mL oral tetracycline to reduce normal oral flora (n=5 per group; n=4 for nystatin group). Day 0: infection initiated by oral inoculation of a 50 μL suspension of C. albicans (clinical isolate GDH2346 at 5×10^7 cfu/mL) onto a cotton ball after lightly scoring the tongues. Day 3: Single topical administration of test agent (10 mg/mL) applied in 0.05 mL hydrogel. Tissue was harvested 24 hours post-treatment, homogenized, and quantitated by serial dilution and plating.

C. albicans GDH2346 = assay: Cellular efflux, ATP release by luciferase assay; type: cell-based
Method: (A) C. albicans GDH2346 was treated with either Compound 100 or histatin 5 for 30 minutes, followed by the separation of the extracellular medium and the cells. Intracellular and extracellular ATP levels were quantified by luciferase assay and measurement in a luminometer, relative to a standard control. Treatment 1=no treatment; Treatment 2=16 μg/mL Compound 100; Treatment 3=32 μg/mL Compound 100; and Treatment 4=Histatin 5 (1 mg/mL). (B) Time dependent release of ATP of cells treated with Compound 100 at 32 μg/mL. (C) Dose response of cells treated for 30 minutes, followed by quantification of extracellular ATP.

A. fumigatus (A1163) = assay: Anti-Aspergillus screen, CLSI M38-A, visual inhibition of growth; type: cell-based; conditions: screening concentration 10 μM, 24-48 hours
Method: (§1) The in vitro efficacy of a library of compounds was assessed for antifungal activity against A. niger (AN1), A. fumigatus ([…]) and A. flavus (NRRL3357) and compared to that of Itraconazole. For a subset of compounds selected based upon efficacy in the screening study a full MIC profile was conducted. Efficacy of test articles was determined in RPMI 1640 broth with MOPS buffered to pH7.2 in accordance with CLSI guidelines M38-A for Antifungal Susceptibility Testing of Filamentous Fungi. The method was modified by using flat well plates to allow microscopic identification of growth. The final screening concentration of each test article was 10 μM. Assay plates were incubated aerobically at 37° C. for 24-48 hours. Following incubation, plates were assessed visually (by eye and microscopically) for inhibition of growth. Inhibition was recorded at 50%, 80% and 100% inhibition compared to the positive control.

A. flavus (NRRL3357) = assay: as above; type: cell-based; conditions: screening concentration 10 μM, 24-48 hours
Method: as §1

A. niger (AN1) = assay: as above; type: cell-based; conditions: screening concentration 10 μM, 24-48 hours
Method: as §1

[3] = Cytotoxicity, MTS viability assay; type: cell-based, human; conditions: Table 6
How it was run: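 Cytotoxicity in mouse 3T3 fibroblasts and human HepG2 liver cells measured by MTS viability assay. Values reported as EC50.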

C. albicans = assay: Disseminated candidiasis model, survival study; type: in vivo; conditions: neutropenic mice
Method: Mice were made neutropenic with i.p. injections of cyclophosphamide (150 mg/kg in 10 mL/kg) at 4 and 1 day before inoculation. Each animal was then inoculated by injecting 0.1 mL of inoculum of C. albicans in a tail vein. At 2 hours post-infection, the standard was administered orally and the test compound by IV. Compounds were dosed once daily for 4 days.
The kidneys were collected from four mice in Group 1 at 2 hours after infection, from four mice in Groups 2-5 at five days after infection, and from all surviving mice in the infected treatment groups. An aliquot of sterile PBS were added to each tube and the contents homogenized with a tissue homogenizer. Serial dilutions of the tissue homogenates were conducted, 0.1 mL aliquots were spread on SDA plates and the plates incubated at 35° C. overnight. The CFU/kidneys were determined from colony counts.
Survival data was analyzed using the log-rank (Mantel-Cox) test and one-way ANOVA with Tukey's Multiple Comparisons Test was performed on the yeast density and change in body weight data (GraphPad InStat version 5.04).

## NCCSc1cc(SCCN)c(C(F)(F)F)cc1NC(=O)c1cc(C(=O)Nc2cc(C(F)(F)F)c(SCCN)cc2SCCN)ncn1 [Compound 100]
[1]
  metabolic activity in mature biofilms: significant reduction of metabolic activity
[2]; single 50 μL dose of 1 mg/mL solution in neutral hydrogel, day 3, C57B1/6 mice
  reduction of total colony counts: greater than 10 fold
[2]; single topical dose 10 mg/mL in 0.05 mL hydrogel on day 3, tongue harvested 24 hours post-treatment
  efficacy relative to Nystatin: 50 fold
[2]; single topical dose 10 mg/mL in hydrogel
  effect on infected tongue burden: nearly sterilized the infected tongue
C. albicans GDH2346; 32 μg/mL
  time to significant extracellular ATP accumulation: ≤ 20 min
C. albicans GDH2346; 32 μg/mL, 30 minutes
  ATP efflux (intracellular vs extracellular ATP): almost all of the ATP from the cell was extracellular
C. albicans GDH2346; 30 minutes of exposure
  concentration with detectable extracellular ATP levels: 16 µg/mL

## N=C(N)N1CCN(c2ccc(-c3cc(-c4ccc(N5CCN(C(=N)N)CC5)cc4)ncn3)cc2)CC1 [Compound 136]
A. fumigatus (A1163)
  inhibition at 10 µM: 100%
A. flavus (NRRL3357)
  inhibition at 10 µM: 100%
A. niger (AN1)
  inhibition at 10 µM: 100%
[3]; human, HepG2 cells (transformed liver), read-out: Cytotoxicity EC50 Human HepG2
  EC50: 453 µM
[3]; mouse, 3T3 fibroblasts, read-out: Cytotoxicity EC50 Mouse 3T3
  EC50: 311 µM

## NCCCOc1cc(OCCCN)cc(-c2ccc3c(c2)c2cc(-c4cc(OCCCN)cc(OCCCN)c4)ccc2n3CCCN)c1 [Compound 135]
C. albicans; 10 mg/kg IV once daily for 4 days
  survival over a 14-day period, p between Fluconazole and compound: < 0.01
C. albicans; 15 mg/kg IV once daily for 4 days
  survival over a 14-day period, p between Fluconazole and compound: < 0.01
